From patent US9333212B2, “Proteasome inhibitors as ovoprotective agents to shield the ovary from chemotherapy toxicity” (Wisconsin Alumni Research Foundation, priority 2013, dated 2016)
Entries after “also recorded” stand apart in the source; their conditions may differ. Residues, ends and D or L forms follow the SMILES beside them. *: point of attachment. Cbz = O=C(OCc1ccccc1)*

How the values were obtained:
mouse ovarian follicles [1] = assay: TUNEL assay, follicular apoptotic index in mouse ovary; type: in vivo
From the text: FIG. 5. […] Ovaries were harvested from treated mice 12 hrs post-DXR injection, fixed, and processed for the TUNEL assay. Apoptotic index measures the fraction of cells dying via apoptosis in each group. *p<0.05 one-way ANOVA n=4 mice.
To determine whether Bort pretreatment prevents DXR-induced follicular apoptosis, ovaries were harvested from mice treated with control, DXR, or Bort+DXR, 12 hrs after chemotherapy administration. Ovaries were fixed and stained using the TUNEL assay. Follicles were scored as apoptotic if they contained ≧4 TUNEL-positive granulosa cells.
TUNEL Staining. Apoptosis was detected utilizing ApopTag Plus Fluorescein In Situ Apoptosis Detection Kit as previously described. Nuclei were counterstained with 0.5 ug/mL Propidium Iodide. Apoptotic index was determined only counting follicles containing a visible oocyte; follicle types were differentiated by standard morphology and size ranges. Primary, secondary, and antral follicles were considered positive if they had ≧4 TUNEL-positive granulosa cells.
To ascertain whether Bort pretreatment prevents DXR-induced follicular apoptosis, ovaries were harvested from mice treated with control vehicle, Bort, DXR, or Bort+DXR, 12 hrs after chemo administration.

[2] = DXR accumulation in mouse ovary by autofluorescence (spectral confocal imaging); type: in vivo; conditions: Bort pretreatment before DXR
From the text: FIG. 11. […] A. Micrographs of mouse ovarian sections obtained by spectral confocal imaging (ex. 488 nm, em. given in panel B). Images are overlays of all collected emission wavelengths. Bar=40 μm. For print, images were adjusted equally to a threshold of 140 in Photoshop with no other image enhancements. B. Graph plots mean fluorescence intensity+/−SEM quantified from raw DXR fluorescence in ovarian sections representing the top, middle, and bottom third of the ovary. Emission profiles at 550-560 nm (cold finger) were not collected by the microscope to prevent direct detection of the excitation laser at that wavelength. Confocal parameters were identical from one sample to the next. DXR points are statistically significant from ctl and Bort-DXR with p<0.05, one-way ANOVA, Bonferroni means comparison.
Fluorescence Microscopy. Images were collected using a Nikon A1 laser scanning microscope with a motorized stage to image the entire section at 400× magnification. Each spectral image was taken at the Z plane providing maximal signal in the section utilizing identical laser settings with the spectral scan head, exciting at 488 nm and collecting emissions from 520 nm through 720 nm at 10 nm intervals. […] Total DXR fluorescence was measured in each section image using Nikon Elements, quantifying fluorescent intensity at each emission wavelength.

KK-15 granulosa cells = assay: Neutral comet assay in KK-15 cells pretreated with proteasome inhibitor before DXR; type: cell-based; conditions: 1 h pretreatment, then 3 hr 50 nM DXR
Experimental: FIG. 6. […] (A) Pretreating KK-15 cells for 1 h with the indicated Bortezomib doses prevented dsDNA breaks caused by 3 hr, 50 nM DXR treatment, as measured by the NCA. […] Bar graphs summarize comet moment data. Bortezomib (n=3, ***p<0.001), MG-132, (n=4, ***p<0.001) ANOVA with Bonferroni means comparison.
(§1) KK-15 cells were pretreated with either Bort or MG-132, boronate and aldehyde inhibitors, respectively, for 1 hr prior to DXR.

female CD-1 mice = assay: Breeding trial: pup birth weight and litter size of treated female mice; type: in vivo, mouse
Experimental: Both drugs were administered via i.p. injection. Female mice were then mated with proven fertile males starting at 8 weeks of age. Females were mated continuously with males, separated only for pup delivery, then re-mated immediately with rotated males. Pregnancy and litters were followed until females reached 8 months of age or became infertile.

L1210 cells = conditions: cited from earlier work
kidney = conditions: by preserving Mcl-1 levels; cited from earlier work
[3] = tested on: γH2AX phosphorylation, PTEN, phospho-AKT1, Caspase 3 in mouse ovary; assay: Western blots of ovarian lysates for cell response markers
Experimental: Lysate Preparation and Western Blots. Ovaries were homogenized, protein quantified, and WBs were conducted previously described [9]. Blots were probed with rabbit anti-γH2AFX antibody (Abcam, 1:500), and mouse anti-β actin (Sigma, 1:10,000), rabbit anti-phospho AKT1 (Cell Signaling 1:1000), rabbit anti-PTEN (Cell Signaling 1:1000), and rabbit anti-Caspase 3 (Cell Signaling 1:1000. WBs were scanned and analyzed using the 5 LiCor Odyssey System (UW-Small Molecule Screening Facility) [9].
Mice. […] Four-week old female CD1 mice were treated with 0.143 mg/kg Bort or vehicle control, followed by 20 mg/kg DXR (twice the human equivalent dose) or saline via intraperitoneal injection (200 μL total volume/injection) 1 hour later. Three mice were injected per time point, 2, 4, 6, 12, and 24 hours, as indicated. Mice were euthanized with CO2 per approved protocol, and ovaries were processed as previously described [13].
To determine whether Bort prevents the cellular response to DXR insult, Western blots (WBs) of ovarian lysates were probed for cell response markers at 6 and 24 hrs post-injection.

[4] = tested on: mouse ovarian cells (granulosa, stromal/thecal cells, oocytes); assay: Neutral comet assay of dsDNA breaks in ovarian cells isolated from treated mice
Experimental: The neutral comet assay was used to measure acute DXR-induced double-strand DNA breaks in an in vivo mouse model as previously described [32]. 4-week-old adolescent female CD1 mice were pre-treated with intraperitoneal (i.p.) injection of 0.143 mg/kg Bort 1 hr prior to 20 mg/kg DXR.
Four-week old female CD1 mice were treated with 0.143 mg/kg Bort or vehicle control, followed by 20 mg/kg DXR (twice the human equivalent dose) or saline via intraperitoneal injection (200 μL total volume/injection) 1 hour later. Three mice were injected per time point, 2, 4, 6, 12, and 24 hours, as indicated.
Neutral Comet Assay. Ovaries were processed to provide enriched populations of granulosa cells/oocytes, and stromal/thecal cells that were utilized in the neutral comet assay [9, 13]. At least 100 granulosa and stromal cells and 50 oocytes were imaged from blinded slides per time point per mouse (3 mice/replicate) [9, 13]. The comet moment to quantify DNA damage was scored using CometScore software. Data were normalized to control for each experiment to allow pooling across experiments.
Four week-old adolescent mice were pretreated with 0.143 mg/kg Bort or vehicle control via i.p. injection 1 hour prior to 20 mg/kg DXR i.p. injection. The Bort dose corresponded to ⅓ the lowest human equivalent dose utilized in chemo regimens (0.43 mg/m2 vs. 1.3 mg/m2), while the DXR dose was double the standard human equivalent dose to allow direct imaging of DXR fluorescence in subsequent experiments.

KK-15 cells = assay: DXR LD50 in KK-15 cells; type: cell-based
From the text: as §1

[5] = tested on: mouse ovarian cells (granulosa, stromal/thecal cells, oocytes); conditions: previous characterization, cited from earlier work
mouse ovarian follicles [6] = conditions: previous characterization, cited from earlier work
[7] = in vivo; cited from earlier work
[8] = 1 month post-DXR; cited from earlier work
[9] = tested on: cardiac-derived H9C2 cells; conditions: cited from earlier work
rodent ovary = conditions: in vivo; cited from earlier work
[10] = Bort pretreatment vs DXR alone, 12 hrs post-DXR
[11] = Bort pretreatment, 24 hrs post-injection

SMILES: CC(C)C[C@H](NC(=O)[C@H](Cc1ccccc1)NC(=O)c1cnccn1)B(O)O [Bort, bortezomib]
- DXR-induced apoptosis in the mouse ovary / ovarian follicles (mouse ovarian follicles [1]; 0.143 mg/kg Bort 1 hr before 20 mg/kg DXR, 12 hrs): attenuates DXR-induced apoptosis; also recorded: prevented DXR-induced apoptosis
- antral follicle apoptotic index (mouse ovarian follicles [1]; [10]): small decrease in the antral follicle apoptotic index; also recorded: did not prevent antral follicle apoptosis
- primary follicle apoptosis (TUNEL) (mouse ovarian follicles [1]; [10]): decreased apoptosis in primary follicles; also recorded: appeared to decrease apoptosis in primary follicles
- secondary follicle apoptosis (TUNEL) (mouse ovarian follicles [1]; [10]): levels not different from control; also recorded: significantly attenuated TUNEL signal in secondary follicles
- DXR fluorescence (accumulation) in the ovary [2]: dropped DXR fluorescence to baseline levels; also recorded: lack of chemo accumulation; also recorded: prevented DXR accumulation
- DXR-induced dsDNA breaks in KK-15 cells (comet moment) (KK-15 granulosa cells): prevented DNA damage
- DXR-induced dsDNA breaks in KK-15 cells (comet moment) (KK-15 granulosa cells; listed as Bortezomib): limited DXR-induced dsDNA breaks
- pup weight, deviation from control (female CD-1 mice; 0.143 mg/kg Bortezomib 1 hour before 10 mg/kg DXR): ≤ 6 % of control
- litter size, mating round 1 (female CD-1 mice; Bort-DXR treated mice, round 1): 8 pups
- litter size, mating round 6 (female CD-1 mice; Bort-DXR treated mice, round 6, end of the trial): 12 pups
- DXR nuclear accumulation in L1210 cells (L1210 cells): prevent DXR nuclear accumulation
- protection of the kidney from cisplatin toxicity (kidney): shields the kidney from cisplatin toxicity
- DXR-induced γH2A.X phosphorylation ([3]; 1 hr Bort pretreatment, 6 hrs post-DXR injection): attenuated DXR-induced γH2A.X phosphorylation; also recorded: attenuates γH2AX phosphorylation
- DXR-induced PTEN protein reduction ([3]; Bort pretreatment, 6 hrs post-injection): PTEN protein reduction was eliminated
- DXR-induced decrease of full-length Caspase 3 [3, 11]: prevented
- DXR-induced loss of pAKT1 [3, 11]: similarly prevented; also recorded: restored AKT1 phosphorylation to control levels
- comet moment, stromal cells, deviation from control ([4]; 0.143 mg/kg Bort i.p. 1 hr before 20 mg/kg DXR): ≤ 16 % of control
- comet moment, granulosa cells, deviation from control ([4]; 0.143 mg/kg Bort i.p. 1 hr before 20 mg/kg DXR, 2-24 hrs): ≤ 10 % of control
- DXR-induced DNA damage in stroma cells ([4]; Bort pretreatment, 4 hrs post-DXR): attenuates DXR-induced DNA damage
- DXR-induced DNA damage in granulosa and stromal cells ([4]; Bort pretreatment, 12 hrs post-DXR): attenuates DXR-induced DNA damage
- DXR-induced DNA damage in granulosa cells ([4]; Bort pretreatment, 24 hrs post-DXR): attenuates DXR-induced DNA damage
- DXR-induced DNA damage in oocytes ([4]; Bort pretreatment, 24 hrs post-DXR injection): completely blocked DNA damage
- DXR-induced dsDNA breaks in all ovarian cell types (granulosa, stromal cells, oocytes) ([4]; Bort pretreatment, entire 24 hour acute insult period): completely prevented DXR-induced DNA damage; also recorded: blocked DXR-induced dsDNA breaks; also recorded: prevents DXR-induced dsDNA breaks; also recorded: prevented DXR-induced double strand DNA breaks
- comet moment in stromal cells at 2 hrs ([4]; Bort-DXR mice, 2 hrs, followed by a drop back to baseline): small rise in comet moment

SMILES: COc1cccc2c1C(=O)c1c(O)c3c(c(O)c1C2=O)C[C@@](O)(C(=O)CO)C[C@@H]3O[C@H]1C[C@H](N)[C@H](O)[C@H](C)O1 [DXR, Doxorubicin]
- apoptotic-positive secondary follicles (mouse ovarian follicles [1]; DXR alone, 12 hrs): doubling of apoptotic-positive secondary follicles
- LD50 (KK-15 cells): 50 nM
- litter size relative to control (female CD-1 mice; 10 mg/kg DXR): 50 % of control
- decrease of pup birth weight compared to controls (female CD-1 mice; 10 mg/kg DXR i.p. to 4 week old females): 17%
- litter size (female CD-1 mice; 10 mg/kg DXR, over mating rounds): 5-8 pups/litter
- increase of DNA damage over control, granulosa cells ([5]; DXR): ~2 fold
- maximal increase of DNA damage, stromal cells ([5]; DXR): 50%
- time of first DNA damage, granulosa cells ([5]; post-injection): 4 h
- time of first DNA damage, stromal/theca cells ([5]; post-injection): 2 h
- time of first significant DNA damage over control, oocytes ([5]; post-injection): 10 to 12 h
- apoptotic index, antral follicles (mouse ovarian follicles [6]; 8 hrs post-DXR): 100%
- apoptotic index, primary follicles (mouse ovarian follicles [6]; 12 hours post-DXR): 12%
- apoptotic index, secondary follicles (plateau) (mouse ovarian follicles [6]; 12 hours post-DXR): 40%
- time of first apoptotic events in primordial follicles (mouse ovarian follicles [6]; post-DXR): 48 h
- time to clearance from the blood stream [7]: 15 to 30 min
- ovulation rate relative to pre-DXR [8]: 50%
- PTEN protein expression ([3]; DXR alone, 6 hrs post-injection): appeared to decrease PTEN protein expression levels
- phosphorylated AKT1 (pAKT1) levels ([3]; DXR alone, 24 hrs post-injection): appeared to decrease levels of phosphorylated AKT1
- γH2A.X phosphorylation (17 kDa band) ([3]; DXR alone, ovarian lysates 6 hrs post-injection): increased γH2A.X phosphorylation
- comet moment (dsDNA breaks), stromal cells ([4]; 20 mg/kg DXR i.p. alone): 150 % control values
- comet moment (dsDNA breaks), granulosa cells ([4]; 20 mg/kg DXR i.p. alone, rise over 2-24 hrs post-injection): 250 % control values

SMILES: CC(C)C[C@@H](C=O)NC(=O)[C@H](CC(C)C)NC(=O)[C@H](CC(C)C)NC(=O)OCc1ccccc1 [MG-132] (Cbz-Leu-Leu-Leu-aldehyde)
- DXR-induced dsDNA breaks in KK-15 cells (comet moment) (KK-15 granulosa cells): limited DXR-induced dsDNA breaks; also recorded: prevented DNA damage
- DXR nuclear accumulation in L1210 cells (L1210 cells): prevent DXR nuclear accumulation
- DXR-induced DNA damage in H9C2 cells [9]: prevents DXR-induced DNA damage

SMILES: N.N.[Cl][Pt][Cl] [cisplatin]
- circulating and follicular anti-mullerian hormone (AMH) levels (rodent ovary): decreases circulating and follicular levels of anti-mullerian hormone (AMH)
- pregnancy rates and pups per litter (rodent ovary): decreases pregnancy rates and pups per litter
